{"source": "patent US20250125004A1", "about": "“SYSTEMS AND METHODS FOR POST-TRANSLATIONAL MODIFICATION-INSPIRED DRUG DESIGN AND SCREENING” (Ensem Therapeutics, Inc., priority 2021, published 2025)", "key": {"[1]": {"molecular_target": "c-Src (Src-k protein) (Homo sapiens, UniProt P12931)", "sequence (P12931 254-536)": "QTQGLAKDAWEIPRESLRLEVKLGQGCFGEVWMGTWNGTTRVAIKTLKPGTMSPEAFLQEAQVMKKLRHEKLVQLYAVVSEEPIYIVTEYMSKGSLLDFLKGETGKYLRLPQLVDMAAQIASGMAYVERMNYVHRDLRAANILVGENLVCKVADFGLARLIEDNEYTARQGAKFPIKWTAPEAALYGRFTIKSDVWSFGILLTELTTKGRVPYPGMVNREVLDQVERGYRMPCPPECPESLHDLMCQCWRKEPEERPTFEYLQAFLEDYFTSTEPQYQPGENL", "assay": "Protein thermal shift (PTS) assay", "format": "binding", "experimental": "Human c-Src kinase domain (Src-k, including WT and C280S, 254-536) with a TEV protease cleavable N-terminal 6×-His tag was cloned into pET28a vector and co-expressed with full length YopH phosphatase cloned to pCDFDuet-1 vector in Escherichia coli BL21 (DE3) cells. Cells were cultured in LB medium at 37° C. and induced with 0.4 mM IPTG at 18° C. for 16 hours. Proteins were purified using HisTrap FF column (GE Healthcare) in buffer containing 50 mM Hepes pH=8.0, 500 mM NaCl, 5% glycerol and imidazole (25 mM for loading, 150 mM for elution). After TEV enzyme cleavage, proteins were loaded to Hitrap Q FF (GE Healthcare) in buffer containing 20 mM Hepes pH=8.0, 5% glycerol, 1 mM DTT (QA) and eluted with a linear gradient of 10-30% buffer QB (buffer QA plus 1M NaCl). Then proteins were further purified by Superdex75TM 10/300 GL column (GE Healthcare) and change the buffer to 20 mM Hepes pH=7.4, 150 mM NaCl, 1 mM DTT. Protein thermal shift (PTS) assays were performed on a QuantStudioTM 6 Flex Real-time PCR system (Applied Biosystems). […] Src-k protein, 5×SYPRO® orange (Molecular Probes) and different concentrations of compounds were mixed in 20 μL final buffer and added to 96-well plates (DN Biotech). According to the standard protocol, the reaction system was heated from 25° C. to 95° C. within 25 minutes, and the fluorescence signal was monitored in real time. Protein […] ShiftTM Software Version 1.2 (Life Technologies) was used to determine the Tm value and Graphpad Prism 8.0 was used to draw the curves. The Y419-phosphorylated protein used was obtained by incubating Src-k protein with 5 mM MgCl2 and 10 mM ATP overnight, and then desalting it into final buffer."}, "[2]": {"molecular_target": "T1, c-Src (Homo sapiens, UniProt P12931)", "T1 sequence (P12931 86-536)": "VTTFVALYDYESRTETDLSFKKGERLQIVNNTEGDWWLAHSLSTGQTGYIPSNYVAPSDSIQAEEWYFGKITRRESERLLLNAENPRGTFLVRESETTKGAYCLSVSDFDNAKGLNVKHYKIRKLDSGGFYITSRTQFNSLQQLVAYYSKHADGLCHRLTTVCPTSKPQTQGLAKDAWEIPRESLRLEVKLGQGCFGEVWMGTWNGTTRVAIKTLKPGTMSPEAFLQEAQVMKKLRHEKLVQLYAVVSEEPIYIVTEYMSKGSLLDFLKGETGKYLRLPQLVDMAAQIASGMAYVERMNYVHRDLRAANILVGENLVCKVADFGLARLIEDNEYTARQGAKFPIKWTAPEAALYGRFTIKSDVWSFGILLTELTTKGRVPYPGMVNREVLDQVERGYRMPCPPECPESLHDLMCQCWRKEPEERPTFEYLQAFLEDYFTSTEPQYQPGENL", "assay": "Intact protein mass by HPLC/MS, covalent binding", "settings": "about 20 μM c-Src, 100 μM compound, 4° C., 8 hours; expected 316.34 Da for a single covalent adduct", "experimental": "c-Src protein was diluted to approximately 20 μM in final buffer and incubated with compound at a final concentration of 100 μM or same volume of DMSO at 4° C. for 8 hours. Then, the protein samples were diluted into aqueous solution containing 0.1% formic acid (about 1 mg/mL), and 2 μg of the target protein samples were took for LC/MS analysis. Intact protein high-resolution mass spectrometry was performed using Ultimate 3000 LC liquid chromatograph and LTQ Orbitrap mass spectrometer equipped with HESI ion source (Thermo Fisher, CA). BioPharma Finder software (version 2.0, Thermal Fischer, California) was used to process the raw LC-MS data, and the […] deconvolution algorithm was used to obtain the intact protein masses."}, "[3]": {"molecular_target": "c-Src Y419 autophosphorylation (His-tag Src-k protein) (Homo sapiens, UniProt P12931)", "sequence (P12931 254-536)": "as the sequence (P12931 254-536) above", "assay": "Amplified Luminescent Proximity Homogeneous Assay (ALPHA), auto-phosphorylation of c-Src Y419", "format": "biochemical", "settings": "90 min incubation, n=3, read-out: IC50, inhibition of autophosphorylation of c-Src Y419", "experimental": "Human c-Src kinase domain (Src-k, including WT and C280S, 254-536) with a TEV protease cleavable N-terminal 6×-His tag was cloned into pET28a vector and co-expressed with full length YopH phosphatase cloned to pCDFDuet-1 vector in Escherichia coli BL21 (DE3) cells. Cells were cultured in LB medium at 37° C. and induced with 0.4 mM IPTG at 18° C. for 16 hours. Proteins were purified using HisTrap FF column (GE Healthcare) in buffer containing 50 mM Hepes pH=8.0, 500 mM NaCl, 5% glycerol and imidazole (25 mM for loading, 150 mM for elution). After TEV enzyme cleavage, proteins were loaded to Hitrap Q FF (GE Healthcare) in buffer containing 20 mM Hepes pH=8.0, 5% glycerol, 1 mM DTT (QA) and eluted with a linear gradient of 10-30% buffer QB (buffer QA plus 1M NaCl). Then proteins were further purified by Superdex75™ 10/300 GL column (GE Healthcare) and change the buffer to 20 mM Hepes pH=7.4, 150 mM NaCl, 1 mM DTT. The ability of compounds to inhibit the auto-phosphorylation of c-Src Y419 was determined by Amplified Luminescent Proximity Homogeneous Assay (ALPHA). ALPHA assay was carried out in assay buffer containing 20 mM Hepes, pH=7.4, 0.1% Triton X-100, 1 mM DTT, 0.1% bovine serum albumin (w/v)). […] Finally, the signals were measured in ALPHA protocol using EnVision reader and the IC50 values analyzed in Graphpad Prism 8.0."}, "[4]": {"molecular_target": "T1, c-Src", "assay": "Homogeneous time-resolved fluorescence (HTRF) assay, KinEASE-TK kit", "format": "biochemical", "settings": "120 min incubation, n=3 for DC-Srci-6668, read-out: IC50, inhibition of c-Src catalytic activity", "experimental": "Based on this, covalent docking was performed against an in-house compound library, consisting of 720 compounds with reactive chemical groups. After score ranking and cluster analysis (FIG. 6B), 16 compounds were selected and purchased from ChemDiv (San Diego, CA, USA) for subsequent biochemical evaluations. Although IC50 values are time-dependent for covalent inhibitor and cannot be used to fully characterize the true binding affinity, they are also recognized as an indicator for preliminary evaluating the biological activity of covalent compounds. The homogeneous time resolved fluorescence (HTRF) assay was then conducted to determine the compound inhibitory activity, using the HTRF KinEASE-TK kit (Cisbio, Bedford, MA, USA). […] The cells were infected with baculovirus at 27° C. for 48-72 hours before collection. Cells were lysed in buffer containing 20 mM Hepes pH=7.4, 150 mM NaCl, 1 mM DTT, 1× protease inhibitor cocktail (Roche) and 1 mM PMSF. […] The ability of compounds to inhibit the phosphorylation of a peptide substrate by c-Src kinase was evaluated by homogeneous time-resolved fluorescence (HTRF) using KinEASE-TK kit (Cisbio, Bedford, MA, USA). […] Finally, fluorescence was measured at 615 nm and 665 nm using EnVision reader (PerkinElmer). The results were calculated as follows: ratio=OD665/OD615 and the IC50 values were analyzed in Graphpad Prism 8.0."}}}
{"smiles": "O=C(NC1CCCC1)C(c1ccc(F)cc1)N(C(=O)CCl)C1CC1", "note": "(stereo not drawn) [DC-Srci-6668]", "values": [{"measurement": "positive Tm shift of c-Src", "setting": "[1]; concentration ratio 1:5", "value": 1.50, "unit": "°C"}, {"measurement": "positive Tm shift of c-Src", "setting": "[1]; concentration ratio 1:10", "value": 2.56, "unit": "°C"}, {"measurement": "positive Tm shift of c-Src", "setting": "[1]; concentration ratio 1:20", "value": 3.30, "unit": "°C"}, {"measurement": "increase of MW of c-Src after compound treatment", "setting": "[2]", "value": 316.64, "unit": "Da"}, {"measurement": "IC50", "setting": "[3]", "value": "3.88 ± 0.586", "unit": "µM"}, {"measurement": "IC50", "setting": "[4]", "value": "2.39 ± 0.164", "unit": "µM"}]}
